Assay results: publication PMC4447944 (The Journal of Biological Chemistry, 2015)

Legend:
hMARK1 = biological target: T1, hMARK1 (Homo sapiens, UniProt Q9P0L2); assay: KINOMEscan; type: binding
T1 construct: purchased DiscoverX

hABL1(pE255K) = biological target: T2, hABL1(pE255K) (Homo sapiens, UniProt P00519, E255K); assay: KINOMEscan; type: binding
T2 construct: purchased DiscoverX (KINOMEscan platform)

hAMPK-alpha1 = biological target: T3, hAMPK-alpha1 (Homo sapiens, UniProt Q13131); assay: KINOMEscan; type: binding
T3 construct: purchased DiscoverX

hRSK2(Kin.Dom.1-N-term) = biological target: T4, hRSK2(Kin.Dom.1-N-term) (Homo sapiens, UniProt P51812); assay: KINOMEscan; type: binding
T4 construct: hRSK2(Kin.Dom.1-N-term); purchased DiscoverX (KINOMEscan platform)

CYP2C9 = biological target: T5, CYP2C9 (Homo sapiens, UniProt P11712); assay: Cytochrome p450 inhibition (Eurofins-CEREP); type: in vitro ADME
T5 construct: Eurofins-CEREP

hABL1(pQ252H) = biological target: T6, hABL1(pQ252H) (Homo sapiens, UniProt P00519, Q252H); assay: KINOMEscan; type: binding
T6 construct: purchased DiscoverX (KINOMEscan platform)

hFGFR3(G697C) = biological target: T7, hFGFR3(G697C) (Homo sapiens, UniProt P22607, G697C); assay: KINOMEscan; type: binding
T7 construct: purchased DiscoverX

hBMPR2 = biological target: T8, hBMPR2 (Homo sapiens, UniProt Q13873); assay: KINOMEscan; type: binding
T8 construct: purchased DiscoverX

hABL1(pH396P) = biological target: T9, hABL1(pH396P) (Homo sapiens, UniProt P00519, H396P); assay: KINOMEscan; type: binding
T9 construct: purchased DiscoverX (KINOMEscan platform)

hTEC = biological target: T10, hTEC (Homo sapiens, UniProt P42680); assay: KINOMEscan; type: binding
T10 construct: purchased DiscoverX

hCHEK2 = biological target: T11, hCHEK2 (Homo sapiens, UniProt O96017); assay: KINOMEscan; type: binding
T11 construct: purchased DiscoverX

hPRP4 = biological target: T12, hPRP4 (Homo sapiens, UniProt Q13523); assay: KINOMEscan; type: binding
T12 construct: purchased DiscoverX

hADRβ2 = hADRβ2 (Homo sapiens, UniProt P07550); assay: cAMP Agonist (Eurofins-CEREP); conditions: @ 10 μM
hABL1(H396P) = biological target: T13, hABL1(H396P) (Homo sapiens, UniProt P00519, H396P); assay: KINOMEscan; type: binding
T13 construct: purchased DiscoverX (KINOMEscan platform)

hLATS1 = biological target: T14, hLATS1 (Homo sapiens, UniProt O95835); assay: KINOMEscan; type: binding
T14 construct: purchased DiscoverX (KINOMEscan platform)

[1] = system: SMYD2-induced p53 methylation; assay: Cell-based ELISA for p53 Lys370me1, U2OS cells transfected with FLAG-SMYD2; conditions: Homo sapiens, 15 h
Description: Cell lysates were subject to 10% SDS-PAGE and transferred to a PVDF membrane. Each membrane was blocked in Odyssey Blocking Buffer (LI-COR Biosciences) and incubated with monoclonal anti-p53 (D01) antibody (Abcam, ab1101) or rabbit anti-p53 Lys^370me1 antibody (a kind gift from Dr. Shelley Berger) followed by detection with IRDye®680RD goat anti-mouse IgG (LI-COR Biosciences) and IRDye800CW goat anti-rabbit IgG (LI-COR Biosciences) on the Odyssey Imager (LI-COR Biosciences). […] 4–8 h later, cells were treated with 0–25 μM compound for 15 h. […] 24 h later, cells were lysed with 200 μl of MSD Tris Lysis Buffer^TM (Meso Scale Discovery). A MULTI-ARRAY^TM 96-well plate (Meso Scale Discovery, catalog number L15XA-3) was precoated with 2 μg/ml custom-made methyl-p53 antibody (Lampire) in PBS overnight at 4 °C. 150 μl/well MSD Blocking Solution A^TM (final concentration of 3%) was added followed by shaking at room temperature for 1 h. The plate was washed three times with 1× MSD Tris Wash Buffer^TM (Meso Scale Discovery). 0.5 μg of cell lysate in 25 μl/well MSD Tris Lysis Buffer was added, followed by shaking overnight at 4 °C. […] Following a final wash three times with 1× MSD Tris Wash Buffer, 150 μl/well 1× MSD Read Buffer^TM (Meso Scale Discovery) was added, and plates were read on an MSD SECTOR^TM Imager 6000 instrument (Meso Scale Discovery).

[2] = biological target: T15, hJAK1(JH2Dom.-pseudokinase) (Homo sapiens, UniProt P23458); assay: KINOMEscan; type: binding
T15 construct: hJAK1(JH2Dom.-pseudokinase); purchased DiscoverX (KINOMEscan panel)

hGRK7 = biological target: T16, hGRK7 (Homo sapiens, UniProt Q8WTQ7); assay: KINOMEscan; type: binding
T16 construct: purchased DiscoverX

hPIP5K1A = biological target: T17, hPIP5K1A (Homo sapiens, UniProt Q99755); assay: KINOMEscan; type: binding
T17 construct: purchased DiscoverX

hMKNK2 = biological target: T18, hMKNK2 (Homo sapiens, UniProt Q9HBH9); assay: KINOMEscan; type: binding
T18 construct: purchased DiscoverX

[3] = biological target: T19, hRPS6KA5(Kin.Dom.2-C-term) (Homo sapiens, UniProt O75582); assay: KINOMEscan; type: binding
T19 construct: hRPS6KA5(Kin.Dom.2-C-term); purchased DiscoverX (KINOMEscan platform)

hERK2 = biological target: T20, hERK2 (Homo sapiens, UniProt P28482); assay: KINOMEscan; type: binding
T20 construct: purchased DiscoverX

hERK1 = biological target: T21, hERK1 (Homo sapiens, UniProt P27361); assay: KINOMEscan; type: binding
T21 construct: purchased DiscoverX

hCAMK1D = biological target: T22, hCAMK1D (Homo sapiens, UniProt Q8IU85); assay: KINOMEscan; type: binding
T22 construct: purchased DiscoverX

hTRα1 = biological target: T23, hTRα1 (Homo sapiens, UniProt P10827); assay: Nuclear hormone receptor assay (Eurofins-CEREP); conditions: read-out: Relative IC50
T23 construct: Eurofins-CEREP

hDAPK1 = biological target: T24, hDAPK1 (Homo sapiens, UniProt P53355); assay: KINOMEscan; type: binding
T24 construct: purchased DiscoverX (KINOMEscan platform)

hJAK3(JH1Dom.-catalytic) = biological target: T25, hJAK3(JH1Dom.-catalytic) (Homo sapiens, UniProt P52333); assay: KINOMEscan; type: binding
T25 construct: hJAK3(JH1Dom.-catalytic); purchased DiscoverX (KINOMEscan panel)

hKIT(D816H) = biological target: T26, hKIT(D816H) (Homo sapiens, UniProt P10721, D816H); assay: KINOMEscan; type: binding
T26 construct: purchased DiscoverX (KINOMEscan panel)

hCAMK2G = biological target: T27, hCAMK2G (Homo sapiens, UniProt Q13555); assay: KINOMEscan; type: binding
T27 construct: purchased DiscoverX
T27 sequence (Q13555 whole entry): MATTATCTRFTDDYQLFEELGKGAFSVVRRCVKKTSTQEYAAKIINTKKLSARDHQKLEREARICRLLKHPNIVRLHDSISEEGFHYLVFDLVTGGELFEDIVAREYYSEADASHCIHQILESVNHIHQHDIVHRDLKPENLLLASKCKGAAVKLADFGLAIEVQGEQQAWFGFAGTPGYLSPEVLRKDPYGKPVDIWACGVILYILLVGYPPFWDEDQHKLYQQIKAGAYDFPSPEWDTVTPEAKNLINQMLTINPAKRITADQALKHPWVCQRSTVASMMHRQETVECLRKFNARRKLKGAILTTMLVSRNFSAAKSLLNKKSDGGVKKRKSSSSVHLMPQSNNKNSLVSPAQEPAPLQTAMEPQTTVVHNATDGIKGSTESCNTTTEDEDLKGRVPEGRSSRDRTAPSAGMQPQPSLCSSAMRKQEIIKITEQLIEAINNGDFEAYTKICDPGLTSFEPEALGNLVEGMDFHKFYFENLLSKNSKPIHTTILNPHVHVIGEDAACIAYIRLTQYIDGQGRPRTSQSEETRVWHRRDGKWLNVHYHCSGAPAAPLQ

T19 sequence (O75582 426-687 limits assumed): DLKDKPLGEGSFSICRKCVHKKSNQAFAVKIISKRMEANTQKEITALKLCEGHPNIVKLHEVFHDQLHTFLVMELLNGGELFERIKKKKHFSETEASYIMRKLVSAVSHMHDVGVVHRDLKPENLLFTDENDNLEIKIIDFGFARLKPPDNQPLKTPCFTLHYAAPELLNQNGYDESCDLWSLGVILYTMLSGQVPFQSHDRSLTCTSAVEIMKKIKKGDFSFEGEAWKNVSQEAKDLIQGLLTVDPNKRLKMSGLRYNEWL
T10 sequence (P42680 whole entry): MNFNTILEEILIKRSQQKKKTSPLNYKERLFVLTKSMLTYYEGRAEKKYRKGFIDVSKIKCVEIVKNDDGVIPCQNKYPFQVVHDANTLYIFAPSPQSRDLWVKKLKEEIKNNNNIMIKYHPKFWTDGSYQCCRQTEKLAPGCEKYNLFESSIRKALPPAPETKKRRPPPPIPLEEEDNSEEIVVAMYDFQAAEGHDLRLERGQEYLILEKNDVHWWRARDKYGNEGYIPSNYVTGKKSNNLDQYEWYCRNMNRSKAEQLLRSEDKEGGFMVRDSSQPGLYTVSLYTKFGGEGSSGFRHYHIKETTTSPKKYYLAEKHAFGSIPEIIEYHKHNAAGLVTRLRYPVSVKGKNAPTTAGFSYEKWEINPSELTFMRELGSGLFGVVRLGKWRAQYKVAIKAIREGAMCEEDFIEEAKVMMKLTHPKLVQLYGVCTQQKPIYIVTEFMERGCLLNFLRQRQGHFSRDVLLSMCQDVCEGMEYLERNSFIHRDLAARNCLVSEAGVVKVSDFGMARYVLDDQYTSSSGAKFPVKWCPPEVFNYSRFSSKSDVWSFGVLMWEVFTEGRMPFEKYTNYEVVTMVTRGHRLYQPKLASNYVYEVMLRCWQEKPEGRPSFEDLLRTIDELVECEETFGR
T17 sequence (Q99755 whole entry): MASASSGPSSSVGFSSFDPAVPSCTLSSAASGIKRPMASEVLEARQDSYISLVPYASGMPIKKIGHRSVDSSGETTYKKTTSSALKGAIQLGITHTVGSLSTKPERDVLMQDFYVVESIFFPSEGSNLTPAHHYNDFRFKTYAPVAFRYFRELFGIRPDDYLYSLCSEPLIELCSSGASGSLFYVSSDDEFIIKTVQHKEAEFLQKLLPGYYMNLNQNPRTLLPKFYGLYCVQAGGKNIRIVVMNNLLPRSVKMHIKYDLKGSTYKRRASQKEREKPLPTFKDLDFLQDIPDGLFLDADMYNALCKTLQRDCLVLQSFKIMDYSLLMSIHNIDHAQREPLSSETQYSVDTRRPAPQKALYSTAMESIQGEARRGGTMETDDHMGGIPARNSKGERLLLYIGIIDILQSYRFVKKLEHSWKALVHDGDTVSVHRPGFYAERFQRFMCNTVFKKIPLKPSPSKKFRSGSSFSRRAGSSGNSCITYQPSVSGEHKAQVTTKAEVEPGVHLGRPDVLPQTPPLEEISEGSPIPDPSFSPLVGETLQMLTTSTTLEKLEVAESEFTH
T5 sequence (P11712 whole entry, species assumed): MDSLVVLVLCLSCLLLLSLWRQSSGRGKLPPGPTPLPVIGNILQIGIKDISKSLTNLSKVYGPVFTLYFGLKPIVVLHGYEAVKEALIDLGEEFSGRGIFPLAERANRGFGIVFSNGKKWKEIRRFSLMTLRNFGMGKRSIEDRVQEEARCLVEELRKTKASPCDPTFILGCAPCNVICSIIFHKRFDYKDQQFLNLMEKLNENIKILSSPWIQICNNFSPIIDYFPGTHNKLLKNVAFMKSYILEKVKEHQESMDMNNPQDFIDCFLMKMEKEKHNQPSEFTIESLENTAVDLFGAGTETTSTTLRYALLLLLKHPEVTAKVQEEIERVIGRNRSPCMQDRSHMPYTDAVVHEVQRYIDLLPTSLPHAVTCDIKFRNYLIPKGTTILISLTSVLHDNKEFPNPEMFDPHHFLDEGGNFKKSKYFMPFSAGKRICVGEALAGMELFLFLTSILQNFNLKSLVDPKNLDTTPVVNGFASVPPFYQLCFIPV
T21 sequence (P27361 whole entry): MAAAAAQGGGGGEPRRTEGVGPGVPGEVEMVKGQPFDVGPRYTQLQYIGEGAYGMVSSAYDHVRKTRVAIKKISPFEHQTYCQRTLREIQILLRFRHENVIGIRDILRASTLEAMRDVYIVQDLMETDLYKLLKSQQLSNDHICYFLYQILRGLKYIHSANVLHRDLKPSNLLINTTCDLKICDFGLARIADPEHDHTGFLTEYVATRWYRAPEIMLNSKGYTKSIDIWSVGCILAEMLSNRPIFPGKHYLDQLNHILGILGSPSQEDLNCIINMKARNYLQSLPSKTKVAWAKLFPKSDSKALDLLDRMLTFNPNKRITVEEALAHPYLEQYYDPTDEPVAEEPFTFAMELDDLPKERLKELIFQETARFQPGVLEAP
T20 sequence (P28482 whole entry): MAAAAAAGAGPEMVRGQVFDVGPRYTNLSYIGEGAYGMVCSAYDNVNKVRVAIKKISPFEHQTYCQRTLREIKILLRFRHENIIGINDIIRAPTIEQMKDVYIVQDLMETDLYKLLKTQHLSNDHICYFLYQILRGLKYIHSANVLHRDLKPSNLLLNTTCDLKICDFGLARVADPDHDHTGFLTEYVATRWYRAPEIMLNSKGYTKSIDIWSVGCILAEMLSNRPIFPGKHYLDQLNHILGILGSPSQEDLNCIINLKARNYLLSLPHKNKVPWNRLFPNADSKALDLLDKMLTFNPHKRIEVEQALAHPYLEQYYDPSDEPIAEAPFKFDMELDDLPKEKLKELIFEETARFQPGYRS
T8 sequence (Q13873 27-1038): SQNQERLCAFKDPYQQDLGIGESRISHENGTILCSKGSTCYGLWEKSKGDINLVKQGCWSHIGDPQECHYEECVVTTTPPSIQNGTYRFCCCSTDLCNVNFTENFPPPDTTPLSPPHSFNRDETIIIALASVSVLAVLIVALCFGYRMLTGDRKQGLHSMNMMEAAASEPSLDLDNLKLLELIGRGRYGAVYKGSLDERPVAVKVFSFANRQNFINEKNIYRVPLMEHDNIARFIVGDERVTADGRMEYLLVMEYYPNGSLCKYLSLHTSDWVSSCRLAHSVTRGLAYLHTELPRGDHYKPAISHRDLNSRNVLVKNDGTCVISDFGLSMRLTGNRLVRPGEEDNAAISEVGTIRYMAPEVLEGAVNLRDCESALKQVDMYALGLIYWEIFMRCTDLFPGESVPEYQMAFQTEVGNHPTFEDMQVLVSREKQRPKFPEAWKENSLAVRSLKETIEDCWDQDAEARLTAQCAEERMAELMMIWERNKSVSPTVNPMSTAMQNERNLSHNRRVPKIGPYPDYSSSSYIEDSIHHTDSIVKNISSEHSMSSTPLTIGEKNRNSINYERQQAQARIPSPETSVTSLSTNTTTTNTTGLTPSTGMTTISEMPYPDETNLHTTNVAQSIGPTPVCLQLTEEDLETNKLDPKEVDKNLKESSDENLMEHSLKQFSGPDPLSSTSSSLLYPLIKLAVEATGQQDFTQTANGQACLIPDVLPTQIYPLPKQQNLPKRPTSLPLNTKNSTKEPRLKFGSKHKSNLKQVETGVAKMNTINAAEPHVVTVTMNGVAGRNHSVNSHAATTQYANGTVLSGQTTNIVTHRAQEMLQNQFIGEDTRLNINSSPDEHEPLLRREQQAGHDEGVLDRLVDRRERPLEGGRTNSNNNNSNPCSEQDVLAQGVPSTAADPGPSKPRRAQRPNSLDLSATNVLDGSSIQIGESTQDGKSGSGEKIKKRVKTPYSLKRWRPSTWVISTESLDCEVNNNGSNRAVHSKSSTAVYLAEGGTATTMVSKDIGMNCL
T25 sequence (P52333 822-1111 limits assumed): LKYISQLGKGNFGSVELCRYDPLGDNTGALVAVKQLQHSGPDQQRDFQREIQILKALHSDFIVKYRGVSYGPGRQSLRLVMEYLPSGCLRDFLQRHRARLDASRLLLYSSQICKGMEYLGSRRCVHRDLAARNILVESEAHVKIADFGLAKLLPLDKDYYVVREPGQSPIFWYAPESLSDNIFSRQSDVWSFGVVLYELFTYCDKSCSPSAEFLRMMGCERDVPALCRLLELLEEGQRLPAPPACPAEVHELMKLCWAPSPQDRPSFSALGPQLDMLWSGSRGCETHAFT
Chain of hADRβ2 (P07550 whole entry): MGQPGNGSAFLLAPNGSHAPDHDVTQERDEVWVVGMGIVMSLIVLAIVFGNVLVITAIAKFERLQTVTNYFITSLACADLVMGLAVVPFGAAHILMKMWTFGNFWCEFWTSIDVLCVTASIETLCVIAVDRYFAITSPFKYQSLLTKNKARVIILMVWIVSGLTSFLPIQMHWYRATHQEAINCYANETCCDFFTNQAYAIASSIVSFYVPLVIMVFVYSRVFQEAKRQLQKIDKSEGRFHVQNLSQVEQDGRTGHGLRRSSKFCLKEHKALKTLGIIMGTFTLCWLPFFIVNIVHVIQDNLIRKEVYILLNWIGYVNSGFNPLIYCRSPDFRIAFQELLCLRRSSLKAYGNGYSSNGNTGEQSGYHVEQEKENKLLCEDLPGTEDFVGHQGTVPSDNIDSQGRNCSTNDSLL

Cc1cn(CCN2CCN(c3ccccc3-c3cc(C#N)cc(C(=O)NCCCN4CCCC4)c3)CC2)c2ccccc12 [LLY-507, 3-cyano-5-{2-[4-[2-(3-methylindol-1-yl)ethyl]piperazin-1-yl]-phenyl}-N-[(3-pyrrolidin-1-yl)propyl]benzamide]
IC50 (hMARK1): > 20 µM
IC50 (hABL1(pE255K)): > 20 µM
IC50 (hAMPK-alpha1): > 20 µM
IC50 (hRSK2(Kin.Dom.1-N-term)): > 20 µM
% inhibition @ 10 μM (CYP2C9): 34.2%
IC50 (hABL1(pQ252H)): > 20 µM
IC50 (hFGFR3(G697C)): > 20 µM
IC50 (hBMPR2): > 20 µM
IC50 (hABL1(pH396P)): > 20 µM
IC50 (hTEC): > 20 µM
IC50 (hCHEK2): > 20 µM
IC50 (hPRP4): > 20 µM
% Effect, Stimulation (hADRβ2): 0.1%
IC50 (hABL1(H396P)): > 20 µM
IC50 (hLATS1): > 20 µM
IC50 [1]: 0.6 µM
IC50 [2]: > 20 µM
IC50 (hGRK7): > 20 µM
IC50 (hPIP5K1A): 16.4 µM
IC50 (hMKNK2): > 20 µM
IC50 [3]: > 20 µM
IC50 (hERK2): > 20 µM
IC50 (hERK1): > 20 µM
IC50 (hCAMK1D): > 20 µM
IC50 (hTRα1): > 10 µM
IC50 (hDAPK1): > 20 µM
IC50 (hJAK3(JH1Dom.-catalytic)): > 20 µM
IC50 (hKIT(D816H)): > 20 µM
IC50 (hCAMK2G): > 20 µM
